Measurements: ChEMBL document CHEMBL1201862, “PubChem BioAssay data set” (2004)
The source made the active and inactive calls.

How the values were obtained:
[1] = biological target: T1, Heat shock factor protein 1 (Mus musculus, UniProt P38532); assay: decrease of HSF1-responsive luciferase luminescence – cell-based, NIH3T3, dose retest, confirmation (AID 2382); assay type: functional;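 also: NIH3T3 fibroblasts with HSF1-driven luciferase reporter stressed by proteasome inhibitor MG132; luminescence from HSF1-driven luciferase expression after 8 hours of MG132 stress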
T1 sequence (P38532 whole entry): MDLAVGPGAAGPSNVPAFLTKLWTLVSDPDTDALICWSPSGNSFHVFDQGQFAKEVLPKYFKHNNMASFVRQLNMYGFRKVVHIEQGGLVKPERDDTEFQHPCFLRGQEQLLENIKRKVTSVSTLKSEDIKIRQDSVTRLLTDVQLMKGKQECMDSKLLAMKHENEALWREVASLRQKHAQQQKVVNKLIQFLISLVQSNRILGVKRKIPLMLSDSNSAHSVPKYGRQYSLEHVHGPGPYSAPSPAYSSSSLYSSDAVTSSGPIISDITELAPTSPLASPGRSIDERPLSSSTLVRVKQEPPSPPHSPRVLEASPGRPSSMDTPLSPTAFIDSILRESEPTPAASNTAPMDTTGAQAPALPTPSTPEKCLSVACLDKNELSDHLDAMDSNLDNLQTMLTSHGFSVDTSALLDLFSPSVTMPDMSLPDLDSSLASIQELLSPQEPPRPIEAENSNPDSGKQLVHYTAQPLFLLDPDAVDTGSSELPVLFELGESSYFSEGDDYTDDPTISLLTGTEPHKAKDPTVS

[2] = biological target: T2, RNA-binding protein pos-1 (Caenorhabditis elegans, UniProt G5EF15); assay: disruptors of C. elegans POS-1 RNA interaction – biochemical, fluorescence polarization, dose response (AID 1964);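 also: purified POS-1 fused to maltose binding protein made in E. coli; potency of compounds blocking POS-1 binding to fluorescent RNA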
T2 sequence (G5EF15 whole entry): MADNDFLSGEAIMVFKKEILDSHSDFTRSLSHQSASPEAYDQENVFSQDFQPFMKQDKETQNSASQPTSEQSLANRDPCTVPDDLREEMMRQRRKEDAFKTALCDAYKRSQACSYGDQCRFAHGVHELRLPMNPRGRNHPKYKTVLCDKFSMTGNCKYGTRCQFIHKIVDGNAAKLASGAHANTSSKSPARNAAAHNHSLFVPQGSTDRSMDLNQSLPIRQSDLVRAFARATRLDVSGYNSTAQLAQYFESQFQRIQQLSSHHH

[3] = biological target: T3, Zinc finger protein mex-5 (Caenorhabditis elegans, UniProt Q9XUB2); assay: potency of MEX-5 RNA-binding blockers – biochemical, C. elegans, fluorescence polarization, dose response (AID 1960)
T3 sequence (Q9XUB2 whole entry): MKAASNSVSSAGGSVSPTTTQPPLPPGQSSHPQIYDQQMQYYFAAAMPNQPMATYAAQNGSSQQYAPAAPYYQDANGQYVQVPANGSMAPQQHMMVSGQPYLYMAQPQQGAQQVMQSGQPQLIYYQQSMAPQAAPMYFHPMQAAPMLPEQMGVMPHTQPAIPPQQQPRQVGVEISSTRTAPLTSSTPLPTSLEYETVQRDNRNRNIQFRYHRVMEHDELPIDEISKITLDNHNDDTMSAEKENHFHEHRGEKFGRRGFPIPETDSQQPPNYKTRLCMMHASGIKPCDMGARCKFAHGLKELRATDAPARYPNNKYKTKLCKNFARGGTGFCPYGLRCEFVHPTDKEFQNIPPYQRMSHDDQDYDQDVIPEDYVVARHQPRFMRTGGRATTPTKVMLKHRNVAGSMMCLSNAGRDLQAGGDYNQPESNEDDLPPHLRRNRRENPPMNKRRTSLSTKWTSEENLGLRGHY

Cytochrome P450 3A4 = Cytochrome P450 3A4 (Homo sapiens, UniProt P08684);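 also: CYP3A4 tested as one member of a cytochrome P450 panel screen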
Cytochrome P450 2C9 = Cytochrome P450 2C9 (Homo sapiens, UniProt P11712)
Cytochrome P450 1A2 = biological target: T4, Cytochrome P450 1A2 (Homo sapiens, UniProt P05177);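 also: PubChem cytochrome P450 panel assay, CYP1A2 panel member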
T4 sequence (P05177 whole entry): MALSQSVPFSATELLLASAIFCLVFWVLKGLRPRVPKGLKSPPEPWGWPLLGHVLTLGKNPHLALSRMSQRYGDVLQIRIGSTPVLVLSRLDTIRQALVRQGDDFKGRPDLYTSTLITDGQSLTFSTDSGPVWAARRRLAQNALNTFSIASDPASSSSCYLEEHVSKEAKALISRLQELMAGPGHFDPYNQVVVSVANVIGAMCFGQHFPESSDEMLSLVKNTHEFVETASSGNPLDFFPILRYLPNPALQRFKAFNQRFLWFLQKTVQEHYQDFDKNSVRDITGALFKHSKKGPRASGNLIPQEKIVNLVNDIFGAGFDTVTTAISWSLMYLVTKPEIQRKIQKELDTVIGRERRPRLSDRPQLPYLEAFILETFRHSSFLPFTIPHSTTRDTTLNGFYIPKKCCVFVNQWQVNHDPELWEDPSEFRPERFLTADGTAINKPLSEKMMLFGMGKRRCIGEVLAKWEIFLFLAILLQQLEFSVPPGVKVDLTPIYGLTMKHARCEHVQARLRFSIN

cells = assay type: functional
[4] = THP-1 cell cytotoxicity, dose response, cytotoxicity control for non-replicating M. tuberculosis project (AID 489025); assay type: functional
INS1 = assay: INS-1E survival protection against cytokine death – cell-based, luminescence, retest, dose response (AID 449756); assay type: functional; settings: Rattus norvegicus;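 also: cell death triggered by IL-1 beta plus TNF-alpha plus IFN-gamma mixture; protective hits raise ATP signal compared with cytokine alone wells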
Cytochrome P450 2D6 = Cytochrome P450 2D6 (Homo sapiens, UniProt P10635);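 also: CYP2D6 member of a cytochrome P450 panel assay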
[5] = biological target: T5, High affinity choline transporter 1 (Homo sapiens, UniProt Q9GZV3); assay: human choline transporter blockers, potency – cell-based, 5-point CRC, membrane potential dye, dose response (AID 504840); assay type: functional
T5 sequence (Q9GZV3 whole entry): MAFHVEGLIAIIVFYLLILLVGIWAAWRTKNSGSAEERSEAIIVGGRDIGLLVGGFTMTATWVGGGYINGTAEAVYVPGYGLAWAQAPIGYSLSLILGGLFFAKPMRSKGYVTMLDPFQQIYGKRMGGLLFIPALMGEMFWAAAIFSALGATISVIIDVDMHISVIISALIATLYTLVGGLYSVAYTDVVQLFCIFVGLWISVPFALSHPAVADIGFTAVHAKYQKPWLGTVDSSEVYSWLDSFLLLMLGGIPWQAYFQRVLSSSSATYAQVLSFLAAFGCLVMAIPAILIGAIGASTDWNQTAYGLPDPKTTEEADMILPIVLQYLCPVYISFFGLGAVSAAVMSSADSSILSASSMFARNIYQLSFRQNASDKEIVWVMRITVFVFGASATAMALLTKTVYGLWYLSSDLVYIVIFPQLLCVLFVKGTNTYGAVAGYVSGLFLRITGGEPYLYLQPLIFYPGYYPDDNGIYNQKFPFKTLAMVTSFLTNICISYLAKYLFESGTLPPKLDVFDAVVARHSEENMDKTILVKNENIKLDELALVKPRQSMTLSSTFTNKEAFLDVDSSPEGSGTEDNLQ

Cytochrome P450 2C19 = Cytochrome P450 2C19 (Homo sapiens, UniProt P33261); assay: Cytochrome panel assay with activity outcomes. Panel member name: p450-cyp2c19 Compounds with AC50 equal or less than 10 uM are considered active; assay type: functional
Nonstructural protein 1 = Nonstructural protein 1 (Influenza A virus, UniProt Q194T2); assay type: functional, Influenza A virus (A/California/07/2009(H1N1))
Mu-type opioid receptor = Mu-type opioid receptor (Homo sapiens, UniProt P35372); assay: (§1) Counterscreen for agonists of heterodimerization of the mu 1 (OPRM1) and delta 1 (OPRD1) opioid receptors: Luminescence-based cell-based high throughput dose response assay to identify agonists of OPRM1 homodimerization.; assay type: functional
[6] = biological target: Delta-type opioid receptor (Homo sapiens, UniProt P41143); assay: as §1, with “of OPRD1” for “of OPRM1”, “homodimerization. [Related pubchem assays (depositor defined):AID504326, AID504355, AID504692, AID504904, AID504905]” for “homodimerization.”; assay type: functional
[7] = biological target: 5-hydroxytryptamine receptor 5A (Homo sapiens, UniProt P47898); assay: Counterscreen for agonists of OPRM1-OPRD1 heterodimerization: luminescence-based cell-based high throughput dose response assay to identify agonists of 5-hydroxytryptamine (serotonin) 5A receptor (HTR5A). [Related pubchem assays (depositor defined):AID504326, AID504355, AID504692, AID504904, AID504905]; assay type: functional
Chain of 5-hydroxytryptamine receptor 5A (P47898 whole entry): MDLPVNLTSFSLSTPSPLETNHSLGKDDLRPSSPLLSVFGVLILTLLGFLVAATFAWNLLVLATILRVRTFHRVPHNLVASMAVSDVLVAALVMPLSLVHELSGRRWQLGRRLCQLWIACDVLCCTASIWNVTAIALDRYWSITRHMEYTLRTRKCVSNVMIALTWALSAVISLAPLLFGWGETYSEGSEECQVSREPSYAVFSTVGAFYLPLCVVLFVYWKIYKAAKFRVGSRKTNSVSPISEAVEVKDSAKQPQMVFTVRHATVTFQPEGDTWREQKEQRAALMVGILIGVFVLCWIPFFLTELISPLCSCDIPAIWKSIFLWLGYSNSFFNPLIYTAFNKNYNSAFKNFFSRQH

Chain of Mu-type opioid receptor (P35372 whole entry): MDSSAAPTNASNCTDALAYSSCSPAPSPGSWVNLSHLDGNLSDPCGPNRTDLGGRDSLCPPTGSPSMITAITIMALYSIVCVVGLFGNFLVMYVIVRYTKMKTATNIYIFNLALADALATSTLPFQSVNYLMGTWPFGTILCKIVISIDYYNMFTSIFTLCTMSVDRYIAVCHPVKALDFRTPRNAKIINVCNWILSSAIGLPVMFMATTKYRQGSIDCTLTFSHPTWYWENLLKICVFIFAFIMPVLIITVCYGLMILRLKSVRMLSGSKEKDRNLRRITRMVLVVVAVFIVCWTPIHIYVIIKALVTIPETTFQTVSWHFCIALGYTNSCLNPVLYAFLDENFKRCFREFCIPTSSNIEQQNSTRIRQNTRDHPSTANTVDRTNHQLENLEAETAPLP
Chain of Delta-type opioid receptor (P41143 whole entry): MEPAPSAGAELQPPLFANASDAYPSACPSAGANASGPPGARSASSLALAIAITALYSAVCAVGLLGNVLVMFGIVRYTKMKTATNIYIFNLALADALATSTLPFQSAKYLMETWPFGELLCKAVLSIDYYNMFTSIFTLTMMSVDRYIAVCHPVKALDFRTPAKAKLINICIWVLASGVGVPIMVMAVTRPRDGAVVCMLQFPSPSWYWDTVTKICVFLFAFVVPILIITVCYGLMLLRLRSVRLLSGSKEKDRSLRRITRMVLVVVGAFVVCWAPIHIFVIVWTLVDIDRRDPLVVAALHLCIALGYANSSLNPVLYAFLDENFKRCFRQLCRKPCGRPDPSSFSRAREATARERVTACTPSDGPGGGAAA
Chain of Cytochrome P450 2C9 (P11712 whole entry): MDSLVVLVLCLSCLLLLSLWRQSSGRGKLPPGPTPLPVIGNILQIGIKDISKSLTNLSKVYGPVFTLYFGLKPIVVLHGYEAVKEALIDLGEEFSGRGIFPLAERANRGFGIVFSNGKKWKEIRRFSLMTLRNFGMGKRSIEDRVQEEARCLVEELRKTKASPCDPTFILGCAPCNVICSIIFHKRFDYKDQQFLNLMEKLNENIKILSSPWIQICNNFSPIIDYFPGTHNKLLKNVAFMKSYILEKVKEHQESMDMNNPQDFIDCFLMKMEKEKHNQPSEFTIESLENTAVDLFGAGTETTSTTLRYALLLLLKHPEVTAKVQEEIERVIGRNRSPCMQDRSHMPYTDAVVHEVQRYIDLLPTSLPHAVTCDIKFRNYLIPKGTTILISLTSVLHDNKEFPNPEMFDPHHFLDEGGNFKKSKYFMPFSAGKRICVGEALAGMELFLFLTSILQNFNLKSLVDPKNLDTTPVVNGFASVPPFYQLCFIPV
Chain of Nonstructural protein 1 (Q194T2 whole entry): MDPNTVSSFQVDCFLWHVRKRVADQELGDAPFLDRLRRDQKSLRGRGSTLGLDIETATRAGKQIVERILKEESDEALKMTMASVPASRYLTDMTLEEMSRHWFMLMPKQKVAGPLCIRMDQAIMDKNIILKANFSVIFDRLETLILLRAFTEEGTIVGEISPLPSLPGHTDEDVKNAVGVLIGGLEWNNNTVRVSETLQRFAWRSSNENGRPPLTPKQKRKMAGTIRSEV
Chain of Cytochrome P450 2C19 (P33261 whole entry): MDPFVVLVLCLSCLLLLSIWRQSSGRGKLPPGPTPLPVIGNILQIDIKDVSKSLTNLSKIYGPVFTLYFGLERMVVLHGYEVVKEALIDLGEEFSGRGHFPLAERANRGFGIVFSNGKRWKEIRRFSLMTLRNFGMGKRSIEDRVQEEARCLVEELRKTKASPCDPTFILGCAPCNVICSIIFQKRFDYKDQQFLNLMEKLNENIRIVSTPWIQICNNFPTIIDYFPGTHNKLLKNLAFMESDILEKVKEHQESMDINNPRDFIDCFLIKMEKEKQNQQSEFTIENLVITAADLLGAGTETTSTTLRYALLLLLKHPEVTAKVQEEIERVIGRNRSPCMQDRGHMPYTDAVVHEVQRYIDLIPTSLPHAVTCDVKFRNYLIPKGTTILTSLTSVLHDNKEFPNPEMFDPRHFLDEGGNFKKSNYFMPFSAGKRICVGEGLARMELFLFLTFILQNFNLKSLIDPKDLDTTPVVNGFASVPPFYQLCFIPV
Chain of Cytochrome P450 2D6 (P10635 whole entry): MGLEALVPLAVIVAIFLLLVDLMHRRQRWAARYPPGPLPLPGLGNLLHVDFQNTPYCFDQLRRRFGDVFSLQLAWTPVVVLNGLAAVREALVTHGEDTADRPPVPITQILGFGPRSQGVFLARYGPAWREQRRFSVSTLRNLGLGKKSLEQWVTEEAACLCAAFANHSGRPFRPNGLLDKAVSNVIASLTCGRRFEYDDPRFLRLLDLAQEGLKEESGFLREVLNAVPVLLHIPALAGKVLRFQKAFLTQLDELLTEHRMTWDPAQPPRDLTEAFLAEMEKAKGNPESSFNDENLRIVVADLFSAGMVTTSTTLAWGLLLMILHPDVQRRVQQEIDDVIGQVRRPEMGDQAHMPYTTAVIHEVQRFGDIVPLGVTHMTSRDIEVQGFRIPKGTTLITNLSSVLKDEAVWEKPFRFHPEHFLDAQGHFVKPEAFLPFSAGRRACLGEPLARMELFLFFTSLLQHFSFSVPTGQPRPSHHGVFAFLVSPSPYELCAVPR
Chain of Cytochrome P450 3A4 (P08684 whole entry): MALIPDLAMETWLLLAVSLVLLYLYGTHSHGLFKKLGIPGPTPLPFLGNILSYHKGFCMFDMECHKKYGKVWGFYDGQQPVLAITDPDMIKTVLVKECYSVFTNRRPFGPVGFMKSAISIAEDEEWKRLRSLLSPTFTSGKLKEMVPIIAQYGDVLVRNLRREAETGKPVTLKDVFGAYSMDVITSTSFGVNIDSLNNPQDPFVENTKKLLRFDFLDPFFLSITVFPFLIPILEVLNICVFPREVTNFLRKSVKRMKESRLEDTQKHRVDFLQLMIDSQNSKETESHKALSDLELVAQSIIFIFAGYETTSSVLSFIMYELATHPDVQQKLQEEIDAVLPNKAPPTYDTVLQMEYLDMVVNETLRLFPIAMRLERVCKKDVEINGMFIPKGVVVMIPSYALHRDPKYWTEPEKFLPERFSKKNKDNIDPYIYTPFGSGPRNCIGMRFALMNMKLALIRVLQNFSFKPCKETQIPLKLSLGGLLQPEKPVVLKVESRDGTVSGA

CC1(C)CC(=O)C2=C(C1)OC(N)=C(C#N)C2c1ccccc1 (stereo unspecified)
EC50 [1]: > 195 µM (not active)
EC50 [2]: > 300 µM (not active)
EC50 [3]: > 300 µM (not active)

COc1c2ccoc2nc2c(OC)c(OC[C@H](O)C(C)(C)O)ccc12
AC50 (Cytochrome P450 3A4): 15.8 µM (inconclusive)
AC50 (Cytochrome P450 2C9): inconclusive
AC50 (Cytochrome P450 1A2): 10 µM (inconclusive)

Cc1[nH]c2ccccc2c1-c1cc(-c2cc(-c3c(C)[nH]c4ccccc34)on2)no1
AC50 (Cytochrome P450 2C9): inconclusive

CCOc1cc(-c2sc(Nc3cc(C)ccc3OC)n[n+]2-c2ccccc2)ccc1OC
IC50 (cells): > 50 µM (active)
CC50 [4]: > 40 µM (active)
AC50 (INS1): 12.9 µM (active)

Cc1cc(Cl)ccc1OC(C)C(=O)Nc1ccc(S(=O)(=O)Nc2cnc3ccccc3n2)cc1 (stereo unspecified)
AC50 (Cytochrome P450 2D6): 28.2 µM (inconclusive)
IC50 [5]: 13.8 µM (active)
AC50 (Cytochrome P450 2C19; read-out: AC50): 14.1 µM (inconclusive)

O=C(NC(=S)NNC(=O)c1ccccc1O)c1cccc([N+](=O)[O-])c1
IC50 (Nonstructural protein 1): 15.3 µM (active)

CCOC(=O)c1c(C)c(C(=O)N2CCc3ccccc3C2)c(C)n1CC
IC50 [5]: 13.8 µM (active)

COc1ccc(CCCc2nc3ccccc3[nH]2)cc1
EC50 [2]: > 300 µM (not active)
EC50 [3]: > 300 µM (not active)

Cc1c2ccccc2nc2c(F)c(NC(C)C)c(F)c(F)c12
EC50 [2]: > 300 µM (not active)
EC50 [3]: > 300 µM (not active)

COc1ccc(Cc2nnc(NN)nc2O)cc1OC
IC50 (Nonstructural protein 1): 15.5 µM (active)

CN(C)S(=O)(=O)Oc1ccccc1C(=O)Nc1cccc(C(F)(F)F)c1
AC50 (Cytochrome P450 2C9): inconclusive

CC(=O)N1c2ccc(S(=O)(=O)NCCC(=O)NC3CCCC(C)C3C)cc2CC1C (stereo unspecified)
IC50 [5]: 13.2 µM (active)

CCOC(=O)C1(CC2CCCCO2)CCN(Cc2nc(-c3cccs3)oc2C)CC1 (stereo unspecified)
EC50 (Mu-type opioid receptor): > 92.5 µM (inactive)
EC50 [6]: > 92.5 µM (inactive)
EC50 [7]: > 92.5 µM (inactive)

CCc1ccc(NC(=O)Nc2ccc3c(c2)N(C)C(=O)CS3)cc1
EC50 (Mu-type opioid receptor): 36.7 µM (inactive)
EC50 [6]: 35.7 µM (inactive)
EC50 [7]: > 92.5 µM (inactive)

Cc1ccc(CC(=O)NCC(c2ccco2)N(C)C)cc1C (stereo unspecified)
EC50 (Mu-type opioid receptor): > 92.4 µM (inactive)
EC50 [6]: > 92.4 µM (inactive)
EC50 [7]: > 92.4 µM (inactive)

O=C(N[C@H]1C/C=C\C[C@H](CC(=O)N(CCO)Cc2ccccc2)C(=O)N[C@H](Cc2c[nH]c3ccccc23)COC1=O)OCC1c2ccccc2-c2ccccc21
EC50 (Mu-type opioid receptor): > 92.5 µM (inactive)
EC50 [6]: > 92.5 µM (inactive)
EC50 [7]: > 92.5 µM (inactive)

COCCNC(=O)C1CC(c2cccc(OC)c2)=NO1 (stereo unspecified)
AC50 (Cytochrome P450 2C9): inconclusive

CCCN(C(=O)c1cn(CC)c2nc(C)ccc2c1=O)c1c(N)n(Cc2ccccc2)c(=O)[nH]c1=O
IC50 [5]: 12.6 µM (active)

CC(=O)N/N=C/c1cc([N+](=O)[O-])ccc1OCCOc1ccccc1
AC50 (Cytochrome P450 2C19): inconclusive
AC50 (Cytochrome P450 2C9): inconclusive

CN1CCN(CCC(=O)N/N=C/c2cc([N+](=O)[O-])ccc2O)CC1
IC50 (Nonstructural protein 1): 17.3 µM (active)

COC(=O)[C@@H]1[C@H]2C[C@H]3c4[nH]c5ccccc5c4CCN3C[C@@H]2CC[C@@H]1O [YOHIMBINE]
EC50 [2]: > 300 µM (not active)
EC50 [3]: 103 µM (active)
